Calls of active or inactive are those of the source.

The target of assay [1] is Dual specificity protein kinase CLK4 (Homo sapiens, UniProt Q9HAZ1). The class given is functional.
Assay [2] addresses Insulin-like growth factor 1 receptor (Homo sapiens, UniProt P08069). In words: Navigating the Kinome. Panel member name: IGF1R. The class given is functional.
For assay [3], the target named is Cyclin-dependent kinase 8 (Homo sapiens, UniProt P49336). Put plainly: Navigating the Kinome. Panel member name: CDK8. The class given is functional.
Assay [4] has as its target Tyrosine-protein kinase Lck (Homo sapiens, UniProt P06239). The class given is functional.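 Note: lck was assayed as one member of a kinase panel.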
For assay [5], the target named is Mitogen-activated protein kinase 9 (Homo sapiens, UniProt P45984). The class given is functional.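 Note: value from a kinome panel profiling assay, MAPK9 panel entry.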
Assay [6] concerns the target Serine/threonine-protein kinase pim-1 (Homo sapiens, UniProt P11309). It is filed as functional.
The target in assay [7] is Mitogen-activated protein kinase kinase kinase kinase 4 (Homo sapiens, UniProt O95819). It is filed as functional.
The next assay has as its target Activated CDC42 kinase 1 (Homo sapiens, UniProt Q07912). In words: Navigating the Kinome. Panel member name: ACK1. It is filed as functional.
The target in assay [8] is Dual specificity mitogen-activated protein kinase kinase 2 (Homo sapiens, UniProt P36507). Put plainly: Navigating the Kinome. Panel member name: MAP2K2. The class given is functional.
In assay [9] the target is Glycogen synthase kinase-3 beta (Homo sapiens, UniProt P49841). It is filed as functional.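 Note: value comes from a broad kinome profiling panel, with GSK3B as the panel member.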
The target of assay [10] is Calcium/calmodulin-dependent protein kinase type II subunit alpha (Homo sapiens, UniProt Q9UQM7). In words: Navigating the Kinome. Panel member name: CAMK2A. The class given is functional.
For assay [11], the target named is Dual specificity tyrosine-phosphorylation-regulated kinase 1A (Homo sapiens, UniProt Q13627). It is filed as functional.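 Note: measured against DYRK1A as one member of a broad kinome profiling panel.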
Assay [12] addresses Tyrosine-protein kinase Fyn (Homo sapiens, UniProt P06241). The class given is functional.
The target in assay [13] is Fibroblast growth factor receptor 1 (Homo sapiens, UniProt P11362). It is filed as functional.
The target in assay [14] is 5'-AMP-activated protein kinase catalytic subunit alpha-1 (Homo sapiens, UniProt Q13131). The class given is functional.
For another assay, the target named is Aurora kinase A (Homo sapiens, UniProt O14965). The class given is functional.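 Note: value from the Navigating the Kinome kinase panel profiling, panel entry STK6.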
Assay [15] has as its target cAMP-dependent protein kinase catalytic subunit PRKX (Homo sapiens, UniProt P51817). The class given is functional.
Assay [16] addresses T1, Histone-lysine N-methyltransferase NSD2 (Homo sapiens, UniProt O96028).
T1 sequence (O96028 whole entry): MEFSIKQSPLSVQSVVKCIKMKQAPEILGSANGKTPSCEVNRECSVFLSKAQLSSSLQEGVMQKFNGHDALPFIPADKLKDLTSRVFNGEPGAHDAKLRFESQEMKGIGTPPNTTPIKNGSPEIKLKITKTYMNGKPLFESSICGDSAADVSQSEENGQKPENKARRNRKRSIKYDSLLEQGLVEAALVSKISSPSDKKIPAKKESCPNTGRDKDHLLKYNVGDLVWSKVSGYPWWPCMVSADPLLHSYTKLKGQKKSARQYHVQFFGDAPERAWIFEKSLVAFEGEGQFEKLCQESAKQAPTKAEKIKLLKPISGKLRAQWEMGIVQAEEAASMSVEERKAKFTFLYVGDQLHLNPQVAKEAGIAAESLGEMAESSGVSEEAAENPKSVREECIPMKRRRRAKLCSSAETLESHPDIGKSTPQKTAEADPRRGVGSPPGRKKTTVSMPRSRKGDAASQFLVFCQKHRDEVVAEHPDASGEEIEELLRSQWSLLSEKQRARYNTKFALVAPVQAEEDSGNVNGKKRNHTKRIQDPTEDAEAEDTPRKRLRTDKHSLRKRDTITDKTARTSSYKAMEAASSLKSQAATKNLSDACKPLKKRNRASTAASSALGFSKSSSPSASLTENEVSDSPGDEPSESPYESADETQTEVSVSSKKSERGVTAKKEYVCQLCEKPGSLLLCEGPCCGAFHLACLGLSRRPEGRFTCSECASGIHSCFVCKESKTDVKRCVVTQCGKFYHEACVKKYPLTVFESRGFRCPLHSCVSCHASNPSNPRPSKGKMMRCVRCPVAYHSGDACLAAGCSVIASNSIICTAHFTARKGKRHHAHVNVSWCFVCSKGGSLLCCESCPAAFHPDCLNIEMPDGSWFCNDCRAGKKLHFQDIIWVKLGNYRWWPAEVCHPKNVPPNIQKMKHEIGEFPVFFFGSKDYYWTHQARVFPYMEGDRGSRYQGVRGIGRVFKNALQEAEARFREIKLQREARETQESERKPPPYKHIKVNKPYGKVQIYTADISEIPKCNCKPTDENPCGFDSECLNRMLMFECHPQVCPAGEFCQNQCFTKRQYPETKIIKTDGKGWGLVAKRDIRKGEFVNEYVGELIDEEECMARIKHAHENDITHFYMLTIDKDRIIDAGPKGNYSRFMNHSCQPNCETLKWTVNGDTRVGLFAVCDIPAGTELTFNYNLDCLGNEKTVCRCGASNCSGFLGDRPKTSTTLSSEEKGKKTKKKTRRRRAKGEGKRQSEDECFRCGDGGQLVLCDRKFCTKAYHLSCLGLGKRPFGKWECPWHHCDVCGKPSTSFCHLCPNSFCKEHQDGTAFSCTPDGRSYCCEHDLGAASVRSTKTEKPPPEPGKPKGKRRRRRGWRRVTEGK
It is filed as biochemical.

Assay [17] is described as follows: NIH-3T3 fibroblast cytotoxicity, dose response, cytotoxicity control, cell-based, fluorescence, Alamar Blue, secondary assay (AID 2327).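 Note: NIH-3T3 mouse fibroblasts cultured with fluconazole at 8 µg/mL.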 The class given is functional.
Another assay addresses T2, Streptokinase A (Streptococcus pyogenes serotype M1, UniProt P10520).
T2 sequence (P10520 whole entry): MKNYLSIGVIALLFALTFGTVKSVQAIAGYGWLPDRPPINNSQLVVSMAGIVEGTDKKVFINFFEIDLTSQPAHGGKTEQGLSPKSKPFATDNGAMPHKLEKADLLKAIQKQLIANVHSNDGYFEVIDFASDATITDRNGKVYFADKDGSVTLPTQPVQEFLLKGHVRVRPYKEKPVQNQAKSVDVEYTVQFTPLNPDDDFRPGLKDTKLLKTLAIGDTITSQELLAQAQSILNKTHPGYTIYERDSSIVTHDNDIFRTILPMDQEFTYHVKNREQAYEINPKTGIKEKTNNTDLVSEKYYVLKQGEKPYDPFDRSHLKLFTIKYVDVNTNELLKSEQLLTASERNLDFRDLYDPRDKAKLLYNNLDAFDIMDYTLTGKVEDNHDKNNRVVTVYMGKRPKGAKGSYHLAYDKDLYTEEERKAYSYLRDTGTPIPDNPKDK
In words: viability-normalized secreted streptokinase activity reduction – plasminogen activation absorbance, OD405, dose response (AID 1914).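 Note: secreted streptokinase activity via plasminogen activation per viability signal from cell pellet.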 It is filed as functional, Streptococcus pyogenes M1 GAS.

Insulin-like growth factor 1 receptor, sequence (P08069 31-736 limits assumed): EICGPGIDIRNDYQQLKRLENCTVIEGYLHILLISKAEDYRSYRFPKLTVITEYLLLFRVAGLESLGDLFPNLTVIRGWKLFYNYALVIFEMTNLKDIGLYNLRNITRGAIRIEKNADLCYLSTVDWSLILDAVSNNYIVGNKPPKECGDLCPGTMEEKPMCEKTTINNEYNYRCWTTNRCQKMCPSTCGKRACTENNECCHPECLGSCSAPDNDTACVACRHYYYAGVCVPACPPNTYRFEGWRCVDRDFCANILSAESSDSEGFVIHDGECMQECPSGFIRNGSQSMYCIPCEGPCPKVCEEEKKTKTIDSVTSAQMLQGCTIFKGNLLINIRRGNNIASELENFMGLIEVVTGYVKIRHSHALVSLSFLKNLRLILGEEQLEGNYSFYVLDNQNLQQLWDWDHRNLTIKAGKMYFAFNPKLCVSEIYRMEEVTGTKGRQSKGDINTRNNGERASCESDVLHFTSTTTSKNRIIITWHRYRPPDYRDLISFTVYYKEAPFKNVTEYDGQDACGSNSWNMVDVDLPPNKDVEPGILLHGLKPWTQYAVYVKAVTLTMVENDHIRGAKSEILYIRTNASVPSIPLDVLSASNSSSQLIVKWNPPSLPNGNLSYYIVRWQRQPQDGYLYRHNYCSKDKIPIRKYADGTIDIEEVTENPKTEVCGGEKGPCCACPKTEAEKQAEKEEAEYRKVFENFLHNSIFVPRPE
Insulin-like growth factor 1 receptor, sequence (P08069 741-1367 limits assumed): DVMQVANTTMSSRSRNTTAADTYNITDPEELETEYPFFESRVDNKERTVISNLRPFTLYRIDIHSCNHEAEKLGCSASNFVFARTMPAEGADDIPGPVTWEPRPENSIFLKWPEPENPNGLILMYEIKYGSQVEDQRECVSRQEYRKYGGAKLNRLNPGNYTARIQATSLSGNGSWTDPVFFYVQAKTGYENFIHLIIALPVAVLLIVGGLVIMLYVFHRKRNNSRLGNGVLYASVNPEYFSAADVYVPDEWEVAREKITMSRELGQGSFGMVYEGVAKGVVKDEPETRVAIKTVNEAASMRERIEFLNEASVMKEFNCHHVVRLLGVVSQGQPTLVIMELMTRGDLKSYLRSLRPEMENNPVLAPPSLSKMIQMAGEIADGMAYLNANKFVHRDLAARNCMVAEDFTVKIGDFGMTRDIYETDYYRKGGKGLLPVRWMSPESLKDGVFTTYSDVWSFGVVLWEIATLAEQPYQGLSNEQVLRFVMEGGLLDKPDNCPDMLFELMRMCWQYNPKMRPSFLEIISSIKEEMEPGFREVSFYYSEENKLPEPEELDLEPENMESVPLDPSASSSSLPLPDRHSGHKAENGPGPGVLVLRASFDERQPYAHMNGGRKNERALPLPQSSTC
Aurora kinase A, sequence (O14965 whole entry): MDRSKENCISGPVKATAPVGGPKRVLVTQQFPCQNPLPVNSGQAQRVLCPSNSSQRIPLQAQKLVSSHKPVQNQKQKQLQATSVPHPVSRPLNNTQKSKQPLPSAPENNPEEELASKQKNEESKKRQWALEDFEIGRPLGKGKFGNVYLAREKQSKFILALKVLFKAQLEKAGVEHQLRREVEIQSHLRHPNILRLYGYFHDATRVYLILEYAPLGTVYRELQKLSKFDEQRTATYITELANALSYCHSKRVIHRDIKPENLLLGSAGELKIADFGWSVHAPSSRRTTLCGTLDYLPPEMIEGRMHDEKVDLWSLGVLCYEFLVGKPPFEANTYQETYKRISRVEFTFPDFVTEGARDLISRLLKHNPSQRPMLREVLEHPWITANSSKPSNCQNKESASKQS
Tyrosine-protein kinase Fyn, sequence (P06241 whole entry): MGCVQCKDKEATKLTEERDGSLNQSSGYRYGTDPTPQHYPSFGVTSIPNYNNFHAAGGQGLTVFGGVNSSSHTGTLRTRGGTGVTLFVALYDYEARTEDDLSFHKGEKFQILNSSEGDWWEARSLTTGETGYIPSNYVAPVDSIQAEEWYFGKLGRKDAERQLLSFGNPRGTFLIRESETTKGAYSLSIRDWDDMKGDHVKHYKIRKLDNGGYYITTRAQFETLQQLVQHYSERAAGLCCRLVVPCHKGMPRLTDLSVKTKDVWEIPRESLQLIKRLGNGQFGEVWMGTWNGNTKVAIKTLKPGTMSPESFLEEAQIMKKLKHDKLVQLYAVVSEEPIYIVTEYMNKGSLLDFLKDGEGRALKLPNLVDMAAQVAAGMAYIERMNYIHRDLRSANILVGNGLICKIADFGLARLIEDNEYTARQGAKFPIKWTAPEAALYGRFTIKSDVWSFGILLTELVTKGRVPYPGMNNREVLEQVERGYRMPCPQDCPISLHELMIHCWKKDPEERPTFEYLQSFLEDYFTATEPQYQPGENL
Mitogen-activated protein kinase 9, sequence (P45984 whole entry): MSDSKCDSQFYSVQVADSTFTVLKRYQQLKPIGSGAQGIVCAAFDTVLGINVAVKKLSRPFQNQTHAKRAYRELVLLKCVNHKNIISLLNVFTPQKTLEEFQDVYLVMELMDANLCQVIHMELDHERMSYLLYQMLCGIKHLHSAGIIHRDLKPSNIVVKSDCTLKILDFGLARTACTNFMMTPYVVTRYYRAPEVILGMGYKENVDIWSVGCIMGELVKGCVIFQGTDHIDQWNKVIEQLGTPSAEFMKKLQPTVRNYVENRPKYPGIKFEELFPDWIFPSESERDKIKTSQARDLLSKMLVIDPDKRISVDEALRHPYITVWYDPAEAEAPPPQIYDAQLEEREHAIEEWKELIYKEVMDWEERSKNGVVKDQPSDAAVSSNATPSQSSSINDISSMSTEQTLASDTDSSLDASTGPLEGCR
Serine/threonine-protein kinase pim-1, sequence (P11309 whole entry): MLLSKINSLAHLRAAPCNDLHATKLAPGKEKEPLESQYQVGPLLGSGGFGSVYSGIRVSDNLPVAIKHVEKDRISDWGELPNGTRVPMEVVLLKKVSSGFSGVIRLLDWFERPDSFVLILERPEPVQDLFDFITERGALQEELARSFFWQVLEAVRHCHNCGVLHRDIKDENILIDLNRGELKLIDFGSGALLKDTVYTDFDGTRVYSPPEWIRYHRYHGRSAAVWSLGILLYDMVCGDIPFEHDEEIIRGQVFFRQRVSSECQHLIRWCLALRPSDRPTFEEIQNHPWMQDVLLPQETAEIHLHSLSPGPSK
Calcium/calmodulin-dependent protein kinase type II subunit alpha, sequence (Q9UQM7 whole entry): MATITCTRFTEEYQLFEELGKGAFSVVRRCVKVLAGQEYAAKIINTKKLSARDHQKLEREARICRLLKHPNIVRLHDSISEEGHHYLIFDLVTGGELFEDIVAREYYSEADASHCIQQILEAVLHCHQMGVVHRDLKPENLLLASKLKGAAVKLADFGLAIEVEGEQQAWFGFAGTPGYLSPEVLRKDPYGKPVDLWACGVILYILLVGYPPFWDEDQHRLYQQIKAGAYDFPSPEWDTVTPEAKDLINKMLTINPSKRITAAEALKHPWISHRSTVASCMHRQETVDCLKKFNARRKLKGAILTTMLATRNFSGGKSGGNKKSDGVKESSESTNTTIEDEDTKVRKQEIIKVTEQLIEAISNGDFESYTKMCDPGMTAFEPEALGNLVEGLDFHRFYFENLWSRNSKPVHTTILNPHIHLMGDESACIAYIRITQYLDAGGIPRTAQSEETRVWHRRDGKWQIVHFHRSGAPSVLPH
Dual specificity protein kinase CLK4, sequence (Q9HAZ1 whole entry): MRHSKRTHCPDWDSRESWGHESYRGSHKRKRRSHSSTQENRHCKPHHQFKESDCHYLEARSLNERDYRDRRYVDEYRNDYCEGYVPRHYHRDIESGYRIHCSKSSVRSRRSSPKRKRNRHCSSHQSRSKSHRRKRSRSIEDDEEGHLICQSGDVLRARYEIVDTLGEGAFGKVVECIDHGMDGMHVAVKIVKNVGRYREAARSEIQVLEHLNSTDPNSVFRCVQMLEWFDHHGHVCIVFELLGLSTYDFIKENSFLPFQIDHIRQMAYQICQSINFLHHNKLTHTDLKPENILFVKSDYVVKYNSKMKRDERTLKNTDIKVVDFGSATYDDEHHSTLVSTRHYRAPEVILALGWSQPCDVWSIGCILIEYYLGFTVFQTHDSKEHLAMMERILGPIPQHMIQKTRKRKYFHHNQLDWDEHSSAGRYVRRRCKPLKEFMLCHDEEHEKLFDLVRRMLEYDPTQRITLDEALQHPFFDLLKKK
Dual specificity mitogen-activated protein kinase kinase 2, sequence (P36507 whole entry): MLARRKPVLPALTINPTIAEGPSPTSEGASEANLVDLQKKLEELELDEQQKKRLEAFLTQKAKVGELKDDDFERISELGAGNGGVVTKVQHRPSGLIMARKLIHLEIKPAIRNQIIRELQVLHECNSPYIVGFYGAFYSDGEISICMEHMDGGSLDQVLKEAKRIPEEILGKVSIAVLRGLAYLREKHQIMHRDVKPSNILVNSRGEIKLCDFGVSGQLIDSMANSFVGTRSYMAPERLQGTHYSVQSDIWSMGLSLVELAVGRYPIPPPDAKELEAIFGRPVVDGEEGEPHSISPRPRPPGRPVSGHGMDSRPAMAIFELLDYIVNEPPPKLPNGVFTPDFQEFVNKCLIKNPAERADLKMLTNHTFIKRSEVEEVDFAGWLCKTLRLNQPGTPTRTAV
Tyrosine-protein kinase Lck, sequence (P06239 whole entry): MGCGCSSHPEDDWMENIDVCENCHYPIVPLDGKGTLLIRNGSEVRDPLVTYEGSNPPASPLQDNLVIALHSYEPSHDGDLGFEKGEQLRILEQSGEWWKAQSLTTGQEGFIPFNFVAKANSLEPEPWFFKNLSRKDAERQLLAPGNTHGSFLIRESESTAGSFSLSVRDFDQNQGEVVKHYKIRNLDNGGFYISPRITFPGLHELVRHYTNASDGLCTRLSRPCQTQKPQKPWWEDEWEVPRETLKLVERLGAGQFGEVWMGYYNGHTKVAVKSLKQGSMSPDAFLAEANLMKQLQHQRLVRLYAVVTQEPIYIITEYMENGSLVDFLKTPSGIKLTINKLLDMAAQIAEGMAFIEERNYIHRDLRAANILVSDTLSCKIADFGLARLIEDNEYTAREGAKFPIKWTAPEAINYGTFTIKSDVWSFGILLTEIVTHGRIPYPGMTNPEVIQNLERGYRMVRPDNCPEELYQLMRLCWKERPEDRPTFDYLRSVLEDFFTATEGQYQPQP

As to `Nc1c(-c2ccc(NC(=O)Nc3cccc(C(F)(F)F)c3)cc2)cnc2c(-c3ccc4c(c3)OCO4)cnn12`, the Ki is > 2.51 µM (inactive) in assay [1]; > 2.51 µM (inactive) in assay [2]; 0.0251 µM (active) in assay [3]; 0.0316 µM (active) in assay [4]; > 3.98 µM (inactive) in assay [5]; > 6.31 µM (inactive) in assay [6]. The Ki in assay [7] is > 5.01 µM (inactive); at Activated CDC42 kinase 1, 0.2 µM (active); in assay [8] it was > 3.98 µM (inactive); in assay [9] it was > 3.98 µM (inactive); in [10], > 3.98 µM (inactive); in assay [11] it was > 2 µM (inactive). Besides, the Ki is 0.316 µM (active) in assay [12]; > 3.98 µM (inactive) in assay [13]; > 3.16 µM (inactive) in assay [14]; > 1.58 µM (inactive) at Aurora kinase A; > 3.16 µM (inactive) in [15].
For `Nc1nnc2c(n1)CCCC2`, in [16], the AC50 is 16.5 µM (active).
Turning to `CCN1C(=Cc2sc3ccccc3[n+]2C)C=Cc2cccc(C)c21`, the EC50 is 15.5 µM (inconclusive) in assay [17] and > 150 µM (not active) at Streptokinase A.
Turning to `O=C(Nc1cc(-c2c[nH]c3ncccc23)cc(Cl)n1)c1ccccc1`, the Ki in assay [1] is 0.0251 µM (active); in assay [2], > 2.51 µM (inactive); in [3], 0.0794 µM (active); in assay [4] it was > 6.31 µM (inactive); in [5], > 3.98 µM (inactive); in assay [6] it was > 3.98 µM (inactive). Further, the Ki is 2.51 µM (active) in assay [7]; > 3.98 µM (inactive) at Activated CDC42 kinase 1; > 3.98 µM (inactive) in assay [8]; > 3.98 µM (inactive) in [9]; > 7.94 µM (inactive) in assay [10]; 0.251 µM (active) in assay [11]. Moreover, the Ki in [12] was > 6.31 µM (inactive); in assay [13] it was > 3.98 µM (inactive); in assay [14], > 3.16 µM (inactive); at Aurora kinase A, > 1.58 µM (inactive); in assay [15], > 3.16 µM (inactive).
In the case of `CNC[C@H](Cc1ccccc1)NC[C@@H](Cc1cccc2ccccc12)NCCc1ccc(C)cc1`, the EC50 is > 160 µM (inconclusive) in [17] and > 150 µM (not active) on Streptokinase A.
Take `O=C(Cc1ccccc1Cl)NC1(O)C(=O)c2ccccc2C1=O`: the half-maximal activity concentration (AC50) in assay [16] was 8.16 µM (active).

(Values after ChEMBL document CHEMBL1201862, “PubChem BioAssay data set” (2004).)
